Target: PHD2 (Homo sapiens (Human), UniProt Q9GZT9)
Test: HIF-PH assay (14CO2 capture), PHD2
Type: biochemical
Source text: The selectivity profile for the compound of Formula I can be determined using, for example, any assay familiar and commonly accessible to those skilled in the art, e.g., the following HIF-PH assay. Ketoglutaric acid α-[1-^14C]-sodium salt, alpha-ketoglutaric acid sodium salt, and HPLC purified peptide may be obtained from commercial sources, e.g., Perkin-Elmer (Wellesley MA), Sigma-Aldrich, and SynPep Corp. (Dublin CA), respectively. Peptides for use in the assay may be fragments of HIFα as described above or as disclosed in International Publication WO 2005/118836, incorporated by reference herein. HIF-PH, e.g., PHD1 (EGLN2) or PHD2 (EGLN1), can be expressed in, e.g., insect Hi5 cells, and partially purified, e.g., through a SP ion exchange chromatography column. Enzyme activity is determined by capturing ^14CO2 using an assay described by Kivirikko and Myllyla (1982, Methods Enzymol. 82:245-304). […] The peptide-dependent percent turnover is calculated by subtracting percent turnover in the absence of peptide from percent turnover in the presence of substrate peptide. Percent inhibition and IC50 are calculated using peptide-dependent percent turnover at given inhibitor concentrations. […] IC50 of test compound for PHD1 and for PHD2 and/or PHD3 can be readily determined using the above method, and used to assess the selectivity of the compound for inhibition of PHD1.

PHD2, sequence (Q9GZT9 whole entry, species assumed): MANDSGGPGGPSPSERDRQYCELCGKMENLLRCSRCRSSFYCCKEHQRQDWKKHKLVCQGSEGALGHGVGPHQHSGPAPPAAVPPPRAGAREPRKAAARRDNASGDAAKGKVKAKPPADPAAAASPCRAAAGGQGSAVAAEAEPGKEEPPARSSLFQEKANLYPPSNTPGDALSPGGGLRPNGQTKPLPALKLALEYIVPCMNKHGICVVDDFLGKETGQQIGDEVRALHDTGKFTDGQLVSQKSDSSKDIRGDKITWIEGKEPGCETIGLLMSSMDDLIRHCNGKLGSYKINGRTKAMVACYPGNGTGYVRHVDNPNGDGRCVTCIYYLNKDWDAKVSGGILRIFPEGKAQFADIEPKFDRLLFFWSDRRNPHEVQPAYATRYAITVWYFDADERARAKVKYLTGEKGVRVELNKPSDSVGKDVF

CC(C)(CC(=O)O)NC(=O)c1nc(C#N)c2cc(Oc3ccccc3)ccc2c1O [Formula I, 3-[(1-cyano-4-hydroxy-7-phenoxy-isoquinoline-3-carbonyl)-amino]-3-methyl-butyric acid]
IC50 (Table 1): 20.4 µM
IC50 (additional experiment, Table 1A): 16.9 µM

From US20250099455A1, “TREATMENT FOR CONGESTIVE HEART FAILURE” (FibroGen, Inc., priority 2022, published 2025)
